The values that follow come from ChEMBL document CHEMBL1152944, “Design, synthesis and biological evaluation of novel triazole, urea and thiourea derivatives of quinoline against Mycobacterium tuberculosis” (Bioorg Med Chem, 2009).

Converted amounts (≈) assume the structure as drawn.

A short description of series [1]: Cytotoxicity against mouse macrophage cells assessed as cell viability at 1 ug/100 ul after 24 hrs by MTT assay. It counts as cell-based. Conditions: read-out: Activity. For orientation: Tetrazolium dyes change colour on reduction, which living cells bring about.
Series [2] in a line: Cytotoxicity against mouse macrophage cells assessed as cell viability at 10 ug/100 ul after 24 hrs by MTT assay. It counts as cell-based. As to conditions: read-out: Activity.
Series [3] deals with Mycobacterium tuberculosis. Briefly: Antimycobacterial activity against Mycobacterium tuberculosis H37Rv ATCC 27294 at 6.25 ug/mL by BACTEC 460 radiometric assay. It counts as functional.
Series [4] concerns Mycobacterium tuberculosis. The series can be described thus: Antimycobacterial activity against Mycobacterium tuberculosis H37Rv ATCC 27294. It counts as functional.
Series [5] in a line: Cytotoxicity against mouse macrophage cells assessed as cell viability at 1 ug/100 ul after 72 hrs by MTT assay. It counts as cell-based. Conditions: read-out: Activity.
A short description of series [6]: Cytotoxicity against mouse macrophage cells assessed as cell viability at 10 ug/100 ul after 72 hrs by MTT assay. It counts as cell-based. Conditions: read-out: Activity.

The inhibition is the share of the control response that was lost under treatment. The term MIC denotes the lowest concentration that inhibits growth of the organism. High values mean a need for much substance, low ones inhibition by little substance.

On to `CC(c1cc(F)ccc1Oc1nc2ccc(-n3cc(-c4ccccc4)nn3)cc2cc1Cc1ccccc1)n1ccnc1` (stereo not given), for which the viability at 24 h, 1 ug/100 ul in series [1] worked out at 100%. In series [2], the viability at 24 h, 10 ug/100 ul was found to be 88%. In series [3], this compound yielded an inhibition at 6.25 µg/mL of 96%. Besides, the MIC in series [4] turned out to be 3.12 µg/mL (≈ 5.51 µM). Also, the viability at 72 h, 1 ug/100 ul in series [5] worked out at 61%. For the same compound, the viability at 72 h, 10 ug/100 ul in series [6] is 58%.

As for `CC(c1cc(F)ccc1Oc1nc2ccc(-n3cc(-c4ccccc4)nn3)cc2cc1Cc1ccccc1)N1CCCCC1` (stereo not given), testing at 6.25 µg/mL in series [3] gave an inhibition of 81%.

With `O=[N+]([O-])c1ccc2nc(Oc3ccc(F)cc3C(O)Cn3ccnc3)c(Cc3ccccc3)cc2c1` (stereo not given), in series [3], the inhibition at 6.25 µg/mL is 58%.

`COc1ccc(NC(=S)Nc2ccc3nc(Oc4ccc(F)cc4C(C)O)c(Cc4ccccc4)cc3c2)cc1` (stereo not given) had an inhibition at 6.25 µg/mL in series [3] of 27%.

With `CC(c1cc(F)ccc1Oc1nc2ccc(-n3cc(-c4ccccc4)nn3)cc2cc1Cc1ccccc1)N1CCN(c2ccccn2)CC1` (stereo not given), the inhibition at 6.25 µg/mL in series [3] was found to be 29%.

Turning to `COc1cccc(-c2ccn(CC(O)c3cc(F)ccc3Oc3nc4ccc([N+](=O)[O-])cc4cc3Cc3ccccc3)n2)c1` (stereo not given), at 6.25 µg/mL the inhibition in series [3] was 7%.

Regarding `COc1ccccc1NC(=O)Nc1ccc2nc(Oc3ccc(F)cc3C(C)O)c(Cc3ccccc3)cc2c1` (stereo not given), the inhibition at 6.25 µg/mL in series [3] was found to be 8%.

`CC(c1cc(F)ccc1Oc1nc2ccc(-n3cc(-c4ccccc4)nn3)cc2cc1Cc1ccccc1)N1CCN(c2ccc(F)cc2)CC1` (stereo not given) registered an inhibition at 6.25 µg/mL in series [3] of 20%.

In the case of `COc1cccc(NC(=O)Nc2ccc3nc(Oc4ccc(F)cc4C(C)O)c(Cc4ccccc4)cc3c2)c1` (stereo not given), the viability at 24 h, 1 ug/100 ul in series [1] was found to be 100%. The viability at 24 h, 10 ug/100 ul in series [2] came to 79%. For the same compound, the inhibition at 6.25 µg/mL in series [3] turned out to be 94%. The same compound showed an MIC in series [4] of 3.12 µg/mL (≈ 5.81 µM). Moreover, the viability at 72 h, 1 ug/100 ul in series [5] amounted to 100%. The viability at 72 h, 10 ug/100 ul in series [6] turned out to be 63%.

Regarding `COc1ccc(-c2ccn(CC(O)c3cc(F)ccc3Oc3nc4ccc([N+](=O)[O-])cc4cc3Cc3ccccc3)n2)cc1` (stereo not given), the inhibition at 6.25 µg/mL in series [3] was found to be 5%.

Turning to `CC(O)c1cc(F)ccc1Oc1nc2ccc(NC(=O)Nc3cccc([N+](=O)[O-])c3)cc2cc1Cc1ccccc1` (stereo not given), the viability at 24 h, 1 ug/100 ul in series [1] stood at 91%. Besides, in series [2], the viability at 24 h, 10 ug/100 ul is 87%. Also, 6.25 µg/mL produced 98% inhibition in series [3]. The compound also gave an MIC in series [4] of 6.25 µg/mL (≈ 11.3 µM). Besides, the viability at 72 h, 1 ug/100 ul in series [5] turned out to be 55%. For the same compound, the viability at 72 h, 10 ug/100 ul in series [6] stood at 53%.

On to `O=[N+]([O-])c1ccc2nc(Oc3ccc(F)cc3C(O)Cn3ccc(-c4ccc(C(F)(F)F)cc4)n3)c(Cc3ccccc3)cc2c1` (stereo not given), for which the inhibition at 6.25 µg/mL in series [3] came out at 6%.

As to `O=[N+]([O-])c1ccc2nc(Oc3ccc(F)cc3C(O)CN3CCNCC3)c(Cc3ccccc3)cc2c1` (stereo not given), at 6.25 µg/mL the inhibition in series [3] was 20%.

Compound `O=[N+]([O-])c1ccc2nc(Oc3ccc(F)cc3C(O)Cn3cccn3)c(Cc3ccccc3)cc2c1` (stereo not given) had an inhibition at 6.25 µg/mL in series [3] of 53%.

`COc1ccc(NC(=O)Nc2ccc3nc(Oc4ccc(F)cc4C(C)O)c(Cc4ccccc4)cc3c2)cc1` (stereo not given): in series [3], the inhibition at 6.25 µg/mL turned out to be 25%.

In series [3], `O=[N+]([O-])c1ccc2nc(Oc3ccc(F)cc3C(O)Cn3ccc(-c4cccc(Cl)c4)n3)c(Cc3ccccc3)cc2c1` (stereo not given) showed an inhibition at 6.25 µg/mL of 0%.

For `COc1ccccc1NC(=S)Nc1ccc2nc(Oc3ccc(F)cc3C(C)O)c(Cc3ccccc3)cc2c1` (stereo not given), the inhibition at 6.25 µg/mL in series [3] came to 14%.

As for `COc1cccc(NC(=S)Nc2ccc3nc(Oc4ccc(F)cc4C(C)O)c(Cc4ccccc4)cc3c2)c1` (stereo not given), in series [3], at 6.25 µg/mL the inhibition was 22%.

In series [3], `CC(O)c1cc(F)ccc1Oc1nc2ccc(NC(=S)NCc3ccc(Cl)cc3)cc2cc1Cc1ccccc1` (stereo not given) showed an inhibition at 6.25 µg/mL of 37%.

In turn, `O=[N+]([O-])c1ccc2nc(Oc3ccc(F)cc3C(O)CN3CCOCC3)c(Cc3ccccc3)cc2c1` (stereo not given) returned an inhibition at 6.25 µg/mL in series [3] of 29%.
